According to US20220160650A1, “GEL, OINTMENT, AND FOAM FORMULATIONS OF TAPINAROF AND METHODS OF USE” (Dermavant Sciences GmbH, priority 2020, published 2022):

Key:
[1] = Tapinarof saturated solubility in excipients (Table 1); format: physicochemical
How it was run: (§1)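 Values are the saturated solubility of the stilbene active ingredient in single pharmaceutical excipients, with one excipient tested per sample. Solubility was determined by an HPLC assay for the active ingredient or by visual inspection.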

[2] = Gao et al., Journal of Polymer Research 2011; cited from earlier work
[3] = Purity of tapinarof in individual excipients on storage, related substances HPLC method; format: physicochemical
How it was run: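 The stability of the stilbene active ingredient was tested in individual excipients, one excipient per sample. Samples were analysed at time zero and after storage for up to 2 weeks. Purity of the active ingredient was determined by HPLC.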

[4] = Saturated solubility of tapinarof in individual excipients, by tapinarof assay HPLC or visually (Table 2); format: physicochemical; details: for Average saturated solubility of DMVT-505: visual solubility
How it was run: as §1

Solubility (tapinarof saturated solubility) ([1]; in Benzyl alcohol): 193 mg/g
Solubility (tapinarof saturated solubility) ([1]; in Diethyl sebacate): 488 mg/g
Solubility (tapinarof saturated solubility) ([1]; in Diisopropyl adipate): 187 mg/g
Solubility (tapinarof saturated solubility) ([1]; in Dimethyl isosorbide): 496 mg/g
Solubility (tapinarof saturated solubility) ([1]; in Glycerol): 14 mg/g
Solubility (tapinarof saturated solubility) ([1]; in Hexylene glycol): 386 mg/g
Solubility (tapinarof saturated solubility) ([1]; in Isopropyl alcohol): 485 mg/g
Solubility (tapinarof saturated solubility) ([1]; in Isopropyl palmitate): 231 mg/g
Solubility (tapinarof saturated solubility) ([1]; in Medium chain triglycerides): 273 mg/g
Solubility (tapinarof saturated solubility) ([1]; in Mineral oil): 0.26 mg/g
Solubility (tapinarof saturated solubility) ([1]; in Phenoxyethanol): 381 mg/g
Solubility (tapinarof saturated solubility) ([1]; in Polyethylene glycol 400): 373 mg/g
Solubility (tapinarof saturated solubility) ([1]; in Polysorbate 80): 263 mg/g
Solubility (tapinarof saturated solubility) ([1]; in Propylene carbonate): 506 mg/g
Solubility (tapinarof saturated solubility) ([1]; in Propylene glycol): 444 mg/g
Solubility (tapinarof saturated solubility) ([1]; in Sorbitan oleate): 137 mg/g
Solubility (tapinarof saturated solubility) ([1]; in Water): 0.14 mg/g
Solubility (tapinarof saturated solubility) ([1]; in diethylene glycol monoethyl ether (DEGEE)): 526 mg/g
Purity of DMVT-505 ([3]; in Almond oil, t = 0): 100.00 % area
Purity of DMVT-505 ([3]; in Almond oil, t = 2 weeks, 40° C.): 99.96 % area
Purity of DMVT-505 ([3]; in Almond oil, t = 2 weeks, 70° C.): 99.84 % area
Purity of DMVT-505 ([3]; in Arlasolve DMI, t = 0): 99.55 % area
Purity of DMVT-505 ([3]; in Arlasolve DMI, t = 2 weeks, 40° C.): 96.75 % area
Purity of DMVT-505 ([3]; in Arlasolve DMI, t = 2 weeks, 70° C.): 95.14 % area
Purity of DMVT-505 ([3]; in Castor oil, t = 0): 100.00 % area
Purity of DMVT-505 ([3]; in Castor oil, t = 2 weeks, 40° C.): 100.00 % area
Purity of DMVT-505 ([3]; in Castor oil, t = 2 weeks, 70° C.): 99.92 % area
Purity of DMVT-505 ([3]; in Crodamol GTCC, t = 0): 99.92 % area
Purity of DMVT-505 ([3]; in Crodamol GTCC, t = 2 weeks, 40° C.): 96.46 % area
Purity of DMVT-505 ([3]; in Crodamol GTCC, t = 2 weeks, 70° C.): 96.94 % area
Purity of DMVT-505 ([3]; in Diethyl sebacate, t = 0): 100.00 % area
Purity of DMVT-505 ([3]; in Diethyl sebacate, t = 2 weeks, 40° C.): 96.72 % area
Purity of DMVT-505 ([3]; in Diethyl sebacate, t = 2 weeks, 70° C.): 95.78 % area
Purity of DMVT-505 ([3]; in Diisopropyl adipate, t = 0): 100.00 % area
Purity of DMVT-505 ([3]; in Diisopropyl adipate, t = 2 weeks, 40° C.): 99.79 % area
Purity of DMVT-505 ([3]; in Diisopropyl adipate, t = 2 weeks, 70° C.): 95.94 % area
Purity of DMVT-505 ([3]; in Dipropylene glycol, t = 0): 99.97 % area
Purity of DMVT-505 ([3]; in Dipropylene glycol, t = 2 weeks, 40° C.): 99.83 % area
Purity of DMVT-505 ([3]; in Dipropylene glycol, t = 2 weeks, 70° C.): 98.89 % area
Purity of DMVT-505 ([3]; in Ethanol, t = 0): 99.89 % area
Purity of DMVT-505 ([3]; in Ethanol, t = 2 weeks, 40° C.): 99.72 % area
Purity of DMVT-505 ([3]; in Ethanol, t = 2 weeks, 70° C.): 98.57 % area
Purity of DMVT-505 ([3]; in Hexylene glycol, t = 0): 99.96 % area
Purity of DMVT-505 ([3]; in Hexylene glycol, t = 2 weeks, 40° C.): 99.54 % area
Purity of DMVT-505 ([3]; in Hexylene glycol, t = 2 weeks, 70° C.): 98.76 % area
Purity of DMVT-505 ([3]; in IPA, t = 0): 99.91 % area
Purity of DMVT-505 ([3]; in IPA, t = 2 weeks, 40° C.): 99.86 % area
Purity of DMVT-505 ([3]; in IPA, t = 2 weeks, 70° C.): 99.25 % area
Purity of DMVT-505 ([3]; in IPM, t = 0): 100.00 % area
Purity of DMVT-505 ([3]; in IPM, t = 2 weeks, 40° C.): 99.32 % area
Purity of DMVT-505 ([3]; in IPM, t = 2 weeks, 70° C.): 92.15 % area
Purity of DMVT-505 ([3]; in IPP, t = 0): 100.00 % area
Purity of DMVT-505 ([3]; in IPP, t = 2 weeks, 40° C.): 99.30 % area
Purity of DMVT-505 ([3]; in IPP, t = 2 weeks, 70° C.): 99.52 % area
Purity of DMVT-505 ([3]; in Jojoba oil, t = 0): 99.97 % area
Purity of DMVT-505 ([3]; in Jojoba oil, t = 2 weeks, 40° C.): 98.98 % area
Purity of DMVT-505 ([3]; in Jojoba oil, t = 2 weeks, 70° C.): 99.09 % area
Purity of DMVT-505 ([3]; in Kollicream ® 3C, t = 0): 100.00 % area
Purity of DMVT-505 ([3]; in Kollicream ® 3C, t = 2 weeks, 40° C.): 98.98 % area
Purity of DMVT-505 ([3]; in Kollicream ® 3C, t = 2 weeks, 70° C.): 96.51 % area
Purity of DMVT-505 ([3]; in Kollicream ® OA, t = 0): 100.00 % area
Purity of DMVT-505 ([3]; in Kollicream ® OA, t = 2 weeks, 40° C.): 99.66 % area
Purity of DMVT-505 ([3]; in Kollicream ® OA, t = 2 weeks, 70° C.): 99.46 % area
Purity of DMVT-505 ([3]; in Kollicream ® OD, t = 0): 100.00 % area
Purity of DMVT-505 ([3]; in Kollicream ® OD, t = 2 weeks, 40° C.): 99.38 % area
Purity of DMVT-505 ([3]; in Kollicream ® OD, t = 2 weeks, 70° C.): 98.11 % area
Purity of DMVT-505 ([3]; in MethoxyPEG 350, t = 0): 99.59 % area
Purity of DMVT-505 ([3]; in MethoxyPEG 350, t = 2 weeks, 40° C.): 98.42 % area
Purity of DMVT-505 ([3]; in MethoxyPEG 350, t = 2 weeks, 70° C.): 95.50 % area
Purity of DMVT-505 ([3]; in Olive oil, t = 0): 100.00 % area
Purity of DMVT-505 ([3]; in Olive oil, t = 2 weeks, 40° C.): 99.91 % area
Purity of DMVT-505 ([3]; in Olive oil, t = 2 weeks, 70° C.): 99.74 % area
Purity of DMVT-505 ([3]; in PEG 200, t = 0): 99.91 % area
Purity of DMVT-505 ([3]; in PEG 200, t = 2 weeks, 40° C.): 99.86 % area
Purity of DMVT-505 ([3]; in PEG 200, t = 2 weeks, 70° C.): 98.56 % area
Purity of DMVT-505 ([3]; in PEG 400, t = 0): 99.87 % area
Purity of DMVT-505 ([3]; in PEG 400, t = 2 weeks, 40° C.): 99.30 % area
Purity of DMVT-505 ([3]; in PEG 400, t = 2 weeks, 70° C.): 98.63 % area
Purity of DMVT-505 ([3]; in Propylene glycol, t = 0): 99.90 % area
Purity of DMVT-505 ([3]; in Propylene glycol, t = 2 weeks, 40° C.): 99.51 % area
Purity of DMVT-505 ([3]; in Propylene glycol, t = 2 weeks, 70° C.): 99.23 % area
Purity of DMVT-505 ([3]; in Sesame oil, t = 0): 100.00 % area
Purity of DMVT-505 ([3]; in Sesame oil, t = 2 weeks, 40° C.): 99.94 % area
Purity of DMVT-505 ([3]; in Sesame oil, t = 2 weeks, 70° C.): 99.67 % area
Purity of DMVT-505 ([3]; in Sorbitan monooleate (Span 80), t = 0): 100.00 % area
Purity of DMVT-505 ([3]; in Sorbitan monooleate (Span 80), t = 2 weeks, 40° C.): 100.00 % area
Purity of DMVT-505 ([3]; in Sorbitan monooleate (Span 80), t = 2 weeks, 70° C.): 99.79 % area
Purity of DMVT-505 ([3]; in Sunflower oil, t = 0): 100.00 % area
Purity of DMVT-505 ([3]; in Sunflower oil, t = 2 weeks, 40° C.): 100.00 % area
Purity of DMVT-505 ([3]; in Sunflower oil, t = 2 weeks, 70° C.): 99.51 % area
Average saturated solubility of DMVT-505 (mean of n = 3) ([4]; in Almond oil): 11.94 % w/w
Average saturated solubility of DMVT-505 (mean of n = 3) ([4]; in Aloe vera juice): 0.01 % w/w
Average saturated solubility of DMVT-505 (mean of n = 3) ([4]; in Castor oil): 7.06 % w/w
Average saturated solubility of DMVT-505 ([4]; in Dipropylene glycol): ≥20 (visual solubility) % w/w
Average saturated solubility of DMVT-505 ([4]; in Ethanol): ≥20 (visual solubility) % w/w
Average saturated solubility of DMVT-505 ([4]; in Isopropyl myristate): ≥20 (visual solubility) % w/w
Average saturated solubility of DMVT-505 (mean of n = 3) ([4]; in Jojoba oil): 8.19 % w/w
Average saturated solubility of DMVT-505 (mean of n = 3) ([4]; in Kollicream ® 3C (cocoyl caprylocaprate)): 19.03 % w/w
Average saturated solubility of DMVT-505 (mean of n = 3) ([4]; in Kollicream ® OA (oleyl alcohol)): 15.82 % w/w
Average saturated solubility of DMVT-505 (mean of n = 3) ([4]; in Kollicream ® OD (octyldodecanol)): 11.03 % w/w
Average saturated solubility of DMVT-505 ([4]; in MethoxyPEG 350): ≥20 (visual solubility) % w/w
Average saturated solubility of DMVT-505 (mean of n = 3) ([4]; in Olive oil): 11.35 % w/w
Average saturated solubility of DMVT-505 ([4]; in PEG 200): ≥20% (visual solubility) % w/w
Average saturated solubility of DMVT-505 (mean of n = 3) ([4]; in Safflower oil): 11.68 % w/w
Average saturated solubility of DMVT-505 (mean of n = 3) ([4]; in Sesame oil): 11.56 % w/w
Average saturated solubility of DMVT-505 (mean of n = 3) ([4]; in Soyabean oil): 11.68 % w/w
Average saturated solubility of DMVT-505 (mean of n = 3) ([4]; in Sunflower oil): 12.05 % w/w
Average saturated solubility of DMVT-505 (mean of n = 3) ([4]; in Walnut oil): 12.43 % w/w
SMILES: CC(C)c1c(O)cc(/C=C/c2ccccc2)cc1O [tapinarof, 3,5-Dihydroxy-4-isopropyl-trans-stilbene]
Sensitivity to oxidation and photo degradation [2]: sensitive to oxidation and photo degradation
